Results: patent US12077503B2, “Substituted cyclic amides and their use as herbicides” (FMC CORPORATION, priority 2015, dated 2024)

Experiments:
Assay type in all cases: in vivo
[1] = system: blackgrass (Alopecurus myosuroides); assay: Test A postemergence; details: Alopecurus myosuroides, post-emergence, 240 h; for pest or weed control at 125 g/ha: 125 g ai/ha, postemergence, visual injury vs untreated controls after approx. 10 d, 0 = no effect, 100 = complete control, read-out: Blackgrass plant response rating (0 to 100 scale); for pest or weed control at 31 g/ha: Postemergence, 31 g ai/ha, visual injury after approx. 10 d, 0 to 100 scale, 0 no effect, 100 complete control, read-out: Plant response rating, Blackgrass
In short: (§1)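 Preemergence directed soil spray on seeded pots, or postemergence application to plants 2–10 cm, one- to two-leaf. Solvent mixture non-phytotoxic, with surfactant. Scored ~10 d later, visually, 0–100 vs untreated.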

[2] = system: wheat (Triticum aestivum); assay: Test A postemergence; details: Triticum aestivum, post-emergence, 240 h, 125 g ai/ha, postemergence, visual injury vs untreated controls after approx. 10 d; 0 = no effect, 100 = complete control; read-out: Wheat plant response rating (0 to 100 scale)
In short: as §1

[3] = system: ryegrass, Italian (Italian ryegrass, Lolium multiflorum); assay: Test A postemergence; details: Lolium multiflorum, post-emergence, 240 h, 125 g ai/ha, postemergence, visual injury vs untreated controls after approx. 10 d; 0 = no effect, 100 = complete control; read-out: Ryegrass, Italian plant response rating (0 to 100 scale)
In short: as §1

[4] = system: ragweed (common ragweed, Ambrosia elatior); assay: Test A postemergence; details: Ambrosia artemisiifolia, post-emergence, 240 h, 125 g ai/ha, postemergence, visual injury vs untreated controls after approx. 10 d; 0 = no effect, 100 = complete control; read-out: Ragweed plant response rating (0 to 100 scale)
In short: as §1

[5] = system: Galium (catchweed bedstraw, Galium aparine); assay: Test A postemergence; details: Galium, post-emergence, 240 h; for pest or weed control at 125 g/ha: 125 g ai/ha, postemergence, visual injury vs untreated controls after approx. 10 d, 0 = no effect, 100 = complete control, read-out: Galium plant response rating (0 to 100 scale); for pest or weed control at 31 g/ha: Postemergence, 31 g ai/ha, visual injury after approx. 10 d, 0 to 100 scale, 0 no effect, 100 complete control, read-out: Plant response rating, Galium
In short: as §1

[6] = system: barnyardgrass (Echinochloa crus-galli); assay: Test A postemergence; details: Echinochloa crus-galli, post-emergence, 240 h; for pest or weed control at 125 g/ha: 125 g ai/ha, postemergence, visual injury vs untreated controls after approx. 10 d, 0 = no effect, 100 = complete control, read-out: Barnyardgrass plant response rating (0 to 100 scale); for pest or weed control at 31 g/ha: Postemergence, 31 g ai/ha, visual injury after approx. 10 d, 0 to 100 scale, 0 no effect, 100 complete control, read-out: Plant response rating, Barnyardgrass
In short: as §1

[7] = system: giant foxtail (Setaria faberii); assay: Test A postemergence; details: Setaria faberi, post-emergence, 240 h; for pest or weed control at 125 g/ha: 125 g ai/ha, postemergence, visual injury vs untreated controls after approx. 10 d, 0 = no effect, 100 = complete control, read-out: Foxtail, Giant plant response rating (0 to 100 scale); for pest or weed control at 31 g/ha: Postemergence, 31 g ai/ha, visual injury after approx. 10 d, 0 to 100 scale, 0 no effect, 100 complete control, read-out: Plant response rating, Foxtail, Giant
In short: as §1

[8] = system: pigweed (Amaranthus retroflexus); assay: Test A postemergence; details: Amaranthus retroflexus, post-emergence, 240 h, 125 g ai/ha, postemergence, visual injury vs untreated controls after approx. 10 d; 0 = no effect, 100 = complete control; read-out: Pigweed plant response rating (0 to 100 scale)
In short: as §1

Kochia (Kochia scoparia) [9] = assay: Test A postemergence; details: Bassia scoparia, post-emergence, 240 h; for pest or weed control at 125 g/ha: 125 g ai/ha, postemergence, visual injury vs untreated controls after approx. 10 d, 0 = no effect, 100 = complete control, read-out: Kochia plant response rating (0 to 100 scale); for pest or weed control at 31 g/ha: Postemergence, 31 g ai/ha, visual injury after approx. 10 d, 0 to 100 scale, 0 no effect, 100 complete control, read-out: Plant response rating, Kochia
In short: as §1

corn (Zea mays) = assay: Test A postemergence; details: Zea mays, post-emergence, 240 h; for plant injury at 125 g/ha: 125 g ai/ha, postemergence, visual injury vs untreated controls after approx. 10 d, 0 = no effect, 100 = complete control, read-out: Corn plant response rating (0 to 100 scale); for Corn plant response rating (crop injury, 0 = no effect, 100 = complete kill) at 31 g/ha: Postemergence, 31 g ai/ha, visual injury after approx. 10 d, 0 to 100 scale, 100 complete control
In short: as §1

[10] = system: ducksalad (Heteranthera limosa); assay: Test B flooded paddy test; details: Heteranthera limosa, 250 g ai/ha, Flood; 0 to 100 scale where 0 is no effect and 100 is complete control; read-out: Ducksalad plant response rating
In short: (§2)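 2-leaf plants; pots flooded 3 cm over soil; cpd added to paddy water; depth held; greenhouse 13–15 d; visual rating vs controls, 0 = no effect, 100 = complete control.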

[11] = system: barnyardgrass (Echinochloa crus-galli); assay: Test B flooded paddy test; details: Echinochloa crus-galli, 250 g ai/ha, Flood; 0 to 100 scale where 0 is no effect and 100 is complete control; read-out: Barnyardgrass plant response rating
In short: as §2

[12] = system: sedge, umbrella (small-flower umbrella sedge, Cyperus difformis); assay: Test B flooded paddy test; details: Cyperus difformis, 250 g ai/ha, Flood; 0 to 100 scale where 0 is no effect and 100 is complete control; read-out: Sedge, Umbrella plant response rating
In short: as §2

rice (Oryra sativa) = assay: Test B flooded paddy test; details: Oryza sativa, 250 g ai/ha, Flood; 0 to 100 scale where 0 is no effect and 100 is complete control; read-out: Rice plant response rating
In short: as §2

[13] = system: ryegrass, Italian (Italian ryegrass, Lolium multiflorum); assay: Test A preemergence; details: Lolium multiflorum, pre-emergence, 240 h, 0 to 100 scale where 0 is no effect and 100 is complete control, read-out: Ryegrass, Italian plant response rating; for pest or weed control at 31 g/ha: 31 g ai/ha, Preemergence; for pest or weed control at 125 g/ha: 125 g ai/ha, preemergence, approx. 10 d
In short: as §1

[14] = system: ragweed (common ragweed, Ambrosia elatior); assay: Test A preemergence; details: Ambrosia artemisiifolia, pre-emergence, 240 h, 0 to 100 scale where 0 is no effect and 100 is complete control, read-out: Ragweed plant response rating; for pest or weed control at 31 g/ha: 31 g ai/ha, Preemergence; for pest or weed control at 125 g/ha: 125 g ai/ha, preemergence, approx. 10 d
In short: as §1

[15] = system: barnyardgrass (Echinochloa crus-galli); assay: Test A preemergence; details: Echinochloa crus-galli, pre-emergence, 240 h, 0 to 100 scale where 0 is no effect and 100 is complete control, read-out: Barnyardgrass plant response rating; for pest or weed control at 31 g/ha: 31 g ai/ha, Preemergence; for pest or weed control at 125 g/ha: 125 g ai/ha, preemergence, approx. 10 d
In short: as §1

[16] = system: giant foxtail (Setaria faberii); assay: Test A preemergence; details: Setaria faberi, pre-emergence, 240 h, 0 to 100 scale where 0 is no effect and 100 is complete control, read-out: Foxtail, Giant plant response rating; for pest or weed control at 31 g/ha: 31 g ai/ha, Preemergence; for pest or weed control at 125 g/ha: 125 g ai/ha, preemergence, approx. 10 d
In short: as §1

[17] = system: pigweed (Amaranthus retroflexus); assay: Test A preemergence; details: Amaranthus retroflexus, pre-emergence, 240 h, 0 to 100 scale where 0 is no effect and 100 is complete control, read-out: Pigweed plant response rating; for pest or weed control at 31 g/ha: 31 g ai/ha, Preemergence; for pest or weed control at 125 g/ha: 125 g ai/ha, preemergence, approx. 10 d
Kochia (Kochia scoparia) [18] = assay: Test A preemergence; details: Bassia scoparia, pre-emergence, 240 h, 0 to 100 scale where 0 is no effect and 100 is complete control, read-out: Kochia plant response rating; for pest or weed control at 31 g/ha: 31 g ai/ha, Preemergence; for pest or weed control at 125 g/ha: 125 g ai/ha, preemergence, approx. 10 d
In short: as §1

Structure (SMILES)	pest or weed control at 125 g/ha [1]	pest or weed control at 31 g/ha [1]	plant injury at 125 g/ha [2]	pest or weed control at 125 g/ha [3]	pest or weed control at 125 g/ha [4]	pest or weed control at 125 g/ha [5]	pest or weed control at 31 g/ha [5]	pest or weed control at 125 g/ha [6]	pest or weed control at 31 g/ha [6]	pest or weed control at 125 g/ha [7]	pest or weed control at 31 g/ha [7]	pest or weed control at 125 g/ha [8]	pest or weed control at 125 g/ha (Kochia (Kochia scoparia) [9])	pest or weed control at 31 g/ha (Kochia (Kochia scoparia) [9])	plant injury at 125 g/ha (corn (Zea mays))	Corn plant response rating (crop injury, 0 = no effect, 100 = complete kill) at 31 g/ha (corn (Zea mays))	pest or weed control at 250 g/ha [10]	pest or weed control at 250 g/ha [11]	pest or weed control at 250 g/ha [12]	pest or weed control at 250 g/ha (rice (Oryra sativa))	other results
CON1CC[C@H](c2cccc(C(F)(F)F)c2)[C@@H](C(=O)Nc2cccc(F)c2F)C1=O [Compound 1169]	0%	0%	0%	0%	0%	0%	0%	80%	30%	70%	30%	0%	20%	0%	0%	0%	0%	0%	0%	0%	pest or weed control at 31 g/ha [13]: 0%; pest or weed control at 125 g/ha [13]: 0%; pest or weed control at 31 g/ha [14]: 0%; pest or weed control at 125 g/ha [14]: 0%; pest or weed control at 31 g/ha [15]: 70%; pest or weed control at 125 g/ha [15]: 90%; pest or weed control at 31 g/ha [16]: 70%; pest or weed control at 125 g/ha [16]: 90%; pest or weed control at 31 g/ha [17]: 0%; pest or weed control at 125 g/ha [17]: 0%; pest or weed control at 31 g/ha (Kochia (Kochia scoparia) [18]): 30%; pest or weed control at 125 g/ha (Kochia (Kochia scoparia) [18]): 30%
CN1C[C@H](c2cc(F)cc(C(F)(F)F)c2)[C@@H](C(=O)Nc2cccnc2F)C1=O [Compound 1176]	70%	50%	90%	30%	30%	50%	30%	90%	80%	80%	80%	0%	40%	0%	90%	50%	95%	95%	0%	0%	pest or weed control at 31 g/ha [13]: 40%; pest or weed control at 125 g/ha [13]: 50%; pest or weed control at 31 g/ha [14]: 0%; pest or weed control at 125 g/ha [14]: 0%; pest or weed control at 31 g/ha [15]: 90%; pest or weed control at 125 g/ha [15]: 90%; pest or weed control at 31 g/ha [16]: 90%; pest or weed control at 125 g/ha [16]: 90%; pest or weed control at 31 g/ha [17]: 0%; pest or weed control at 125 g/ha [17]: 40%; pest or weed control at 31 g/ha (Kochia (Kochia scoparia) [18]): 0%; pest or weed control at 125 g/ha (Kochia (Kochia scoparia) [18]): 40%
